Measured values taken from US11524010B2, “Substituted quinazoline sulfonamides as thioredoxin interacting protein (TXNIP) inhibitors” (SOUTHERN RESEARCH INSTITUTE, priority 2017, dated 2022).
“Also recorded” adds a separate entry of the source.

Assays:
[1] = INS-1 cell viability (Cell Titer-Glo, ATP); assay type: cell-based, Rat; conditions: rat, INS-1 cells, 72 hrs treatment
Method: (§1) INS-1 cell viability was determined based on quantification of ATP using Cell Titer-Glo Luminescent Cell Viability Assay kit (Promega #G7572), which indicates the presence of metabolically active cells. Briefly, INS-1 cells were seeded into 96-well plates at a cell density of 4.5×10^4 and 3.5×10^4 cells per well and incubated overnight at 37° C. with 5% CO2. On the following day, cells were treated with compounds for 24 hrs and 72 hrs respectively. Cell Titer-Glo reagent was added to the cells and Luminescence was acquired on Synergy 4 Reader ([…]).

[2] = test system: TXNIP; assay: TXNIP expression in isolated primary human islets; assay type: cell-based
Method: (§2) Isolated primary human islets were cultured in the presence or absence of compound #11 (Table 1).

[3] = test system: primary human islets; assay: Cytokine-induced β-cell apoptosis in primary human islets; assay type: cell-based; conditions: Type 1 diabetes associated cytokines
Method: as §2

[4] = test system: TXNIP; assay: Inhibition of glucose-induced endogenous TXNIP expression in INS-1 cells (qRT-PCR); assay type: cell-based, Rat; conditions: 25 mM glucose; for inhibition at 1.5 µM / inhibition at 12.5 µM: Rattus norvegicus, INS1, 24 h
Method: The Rat INS-1 cell line was obtained from UAB and maintained in RPMI-1640 (Invitrogen #11875) supplemented with 10% fetal bovine serum (FBS), 100 U/ml penicillin and […] streptomycin, 10 mM HEPES, 1 mM Sodium Pyruvate, 50 μM 2-Mercaptoethanol, and 11.1 mM Glucose in a humidified incubator with a 5% C02 atmosphere at 37° C. 4×10^4 cells per well were seeded to 96-well plate and incubated at 37° C. overnight. A subset of the cells were then cultured in medium with 5 mM Glucose for 24 hrs and then treated in medium with 25 mM glucose with or without compounds to be tested for another 24 hrs.
For the primary high throughput screening (HTS) assay, stably transfected, monoclonal INS-1 cells were split using Trypsin (2 ml per T75 flask) and seeded at a density of 10^4/well in a 384-well plate and incubated overnight at low, 5 mM glucose. The next day, the medium was changed to high glucose (25 mM) or high glucose plus the small molecules to be tested and luciferase assays were performed 24 h later. […] For secondary screens, total RNA was extracted from 96-well cultured cells using RNeasy 96 kit (Qiagen #74181) following the manufacturer's protocol using spin technology. Then a one-step qRT-PCR amplification was performed using QuantiFast SYBR Green RT-PCR kit (Qiagen #204154) and was carried out in a 10 μl reaction which consisted of 2 μl RNA, 0.5 μM each of primers (Rat TXNIP 5′ primer: […] (SEQ ID NO:1) and Rat TXNIP 3′ primer: […] (SEQ ID NO:2); Or Rat 18S rRNA 5′ primer: […] (SEQ ID NO:3) and Rat 18S rRNA 3′ primer: […]) (SEQ ID NO:4), 5 μl 2×SYBR Green Master Mix, 0.1 μl 10× QuantiFast RT Mix. The SYBR Green assay was performed using a LightCycler 480 II (Roche Applied Science) with an initial incubation at 50° C. for 10 min for RT followed by denaturation at 95° C. for 5 min. Forty cycles of amplification were performed using a thermal cycling profile of 95° C. for 10s, 60° C. for 30 s. Subsequently, a melting curve was recorded by holding at 95° C. for 60 s, cooling to 60° C. for 60 s, and then heating at 0.11° C./s up to 95° C. The data was collected and analyzed using the LightCycler 480 Software Release 1.5.0 SP3. The relative amount of TXNIP mRNA was normalized to 18 s rRNA level as a housekeeping gene, and the data was analyzed according to the 2^−ΔΔCT method (1). The transformed data was expressed as % inhibition and compound IC50 calculated by a 4-parameter logistic fit of the data using GraphPad Prism 7.

[5] = test system: STZ-diabetic mice; assay: Multiple low-dose STZ-induced diabetes in mice; assay type: in vivo
Method: After having been rendered overtly diabetic by multiple low-dose STZ injections, mice received compound #11a by gavage at a dose of 100 mg/kg b.i.d or 30 mg/kg b.i.d. or received a vehicle control.

[6] = test system: INS-1 cells; assay: INS-1 cell viability (Cell Titer-Glo, ATP); assay type: cell-based, Rat; conditions: 72 hrs treatment, hydrochloride
Method: as §1

[7] = test system: db/db mice; assay: Obese diabetic db/db mice (Type 2 diabetes model); assay type: in vivo; conditions: oral, 4 weeks
Method: Obese, insulin-resistant and diabetic, leptin receptor-deficient db/db mice were administered compound #11a as described above for 4 weeks. […] In addition, they can lower liver and serum lipid levels

[8] = test system: wild-type mice; assay: Oral administration to wild-type mice (glucose, glucagon, hepatic glucose production, lipids); assay type: in vivo
Method: Compound #11a was administered for three weeks in the drinking water of wild-type mice at about 100 mg/kg/d.
Further studies of hepatic glucose production and whole body glucose turnover, i.e., peripheral glucose uptake into muscle and adipose tissue, were performed using hyperinsulinemic-euglycemic clamp studies.

[9] = test system: alpha TC1-6 cells; assay: Glucagon secretion of alpha TC1-6 cells; assay type: cell-based; conditions: incubation of alpha TC1-6 cells with compound
[10] = vs untreated db/db, hydrochloride
[11] = about 100 mg/kg/d in drinking water, three weeks

Row | SMILES | CC50 at 72 h [1] [µM] | inhibition at 1.5 µM ([4]; 1.5 μM compound) [%] | inhibition at 12.5 µM ([4]; 12.5 μM compound) [%] | further results
1 | CS(=O)(=O)NCC1CCCN(c2ncnc3ccc(C(F)(F)F)cc23)C1 (centres unmarked) [Compound 11, N-((1-(6-(trifluoromethyl)quinazolin-4-yl)piperidin-3-yl)methyl)methanesulfonamide] | 56 | 45 | 53 | pro-inflammatory cytokine-induced TXNIP expression ([2]; Type 1 diabetes associated cytokines): protected; glucose-induced TXNIP expression ([2]; high glucose, vs DMSO control): inhibition of TXNIP expression; also recorded: specifically inhibited; cytokine-induced β-cell apoptosis / death [3]: inhibits; also recorded: protected
2 | CS(=O)(=O)NCC1CCCN(c2ncnc3ccc(C(F)(F)F)cc23)C1.Cl (centres unmarked) [Compound 11a, N-((1-(6-(trifluoromethyl)quinazolin-4-yl)piperidin-3-yl)methyl)methanesulfonamide hydrochloride] |  |  |  | blood glucose levels ([5]; STZ (day 1-5) wild-type mice, oral compound day 5-15, vs untreated STZ mice): significantly lower; body weight ([5]; STZ-treated mice, oral 100 mg/kg/d, hydrochloride, 100 mg/kg/day): no detrimental effect; also recorded: maintained a normal body weight; detrimental effects or abnormalities ([5]; STZ-treated mice, oral 100 mg/kg/d, throughout experiment, sacrifice and dissection): no detrimental effects or abnormalities; protection against diabetes ([5]; oral 100 mg/kg/d starting after multiple low-dose STZ regimen): effectively protected; blood glucose levels ([5]; overtly diabetic STZ mice, gavage 100 mg/kg b.i.d or 30 mg/kg b.i.d., vs vehicle): significantly decreased in a dose-dependent manner; CC50 [6]: > 100 µM; fasting serum glucagon levels [7]: significant decrease; blood glucose levels [7, 10]: significantly lower; also recorded: decreased significantly; body weight [7, 10]: no significant effect; also recorded: no difference; blood glucose levels [8, 11]: small but significant decrease; body weight [8, 11]: no change; gross abnormalities in organs upon sacrifice [8, 11]: no gross abnormalities; fasting serum glucagon levels ([8]; about 100 mg/kg/d in drinking water, vs control): decreased; basal hepatic glucose production ([8]; hyperinsulinemic-euglycemic clamp, vs control): significant decrease; liver triglyceride levels ([8]; oral, vs control): two-fold lower; serum non-esterified fatty acids ([8]; oral, vs control): significantly lower; serum triglycerides ([8]; oral, vs control): significantly lower; glucagon secretion [9]: decreased; TXNIP % Inhibition at 1.5 μM ([4]; 1.5 μM compound, 24 hrs): 35%; TXNIP % Inhibition at 12.5 μM ([4]; 12.5 μM compound, 24 hrs): 57%
3 | O=S(=O)(NCC1CCCN(c2ncnc3ccc(C(F)(F)F)cc23)C1)c1ccccc1 (centres unmarked) [Compound 54, N-((1-(6-(trifluoromethyl)quinazolin-4-yl)piperidin-3-yl)methyl)benzenesulfonamide] | 17 | 19 | 53 | 
4 | O=S(=O)(NCC1CCCN(c2ncnc3ccc(C(F)(F)F)cc23)C1)C1CCCCC1 (centres unmarked) [Compound 55, N-((1-(6-(trifluoromethyl)quinazolin-4-yl)piperidin-3-yl)methyl)cyclohexanesulfonamide] | 7 | 29 | 41 | 
5 | O=S(=O)(NCC1CCCN(c2ncnc3ccc(C(F)(F)F)cc23)C1)c1ccc(Cl)cc1 (centres unmarked) [Compound 56, 4-chloro-N-((1-(6-(trifluoromethyl)quinazolin-4-yl)piperidin-3-yl)methyl)benzenesulfonamide] | 17 | 19 | 30 | 
6 | O=S(=O)(NCC1CCCN(c2ncnc3ccc(C(F)(F)F)cc23)C1)C1CC1 (centres unmarked) [Compound 57, N-((1-(6-(trifluoromethyl)quinazolin-4-yl)piperidin-3-yl)methyl)cyclopropanesulfonamide] | 43 | 33 | 67 | 
7 | O=S(=O)(NCC1CCCN(c2ncnc3ccc(F)cc23)C1)C1CC1 (centres unmarked) [Compound 58, N-((1-(6-fluoroquinazolin-4-yl)piperidin-3-yl)methyl)cyclopropanesulfonamide] | 57 | 15 | 65 | 
8 | NC(=O)c1cc2ncnc(N3CCCC(CNS(=O)(=O)C4CC4)C3)c2cc1F (centres unmarked) [Compound 59, 4-(3-(cyclopropanesulfonamidomethyl)piperidin-1-yl)-6-fluoroquinazoline-7-carboxamide] | > 100 | 5 | 5 | 
9 | O=S(=O)(NCC1CCCN(c2ncnc3ccc(F)cc23)C1)N1CCOCC1 (centres unmarked) [Compound 60, N-((1-(6-fluoroquinazolin-4-yl)piperidin-3-yl)methyl)morpholine-4-sulfonamide] | 16 | 32 | 56 | 
10 | CS(=O)(=O)NCC1CCCN(c2nc[n+]([O-])c3ccc(C(F)(F)F)cc23)C1 (centres unmarked) [Compound 61, 4-(3-(methylsulfonamidomethyl)piperidin-1-yl)-6-(trifluoromethyl)quinazoline 1-oxide] | > 100 | 2 | 25 | 
11 | CS(=O)(=O)NCC1CCCN(c2nc(O)nc3ccc(C(F)(F)F)cc23)C1 (centres unmarked) [Compound 62, N-((1-(2-hydroxy-6-(trifluoromethyl)quinazolin-4-yl)piperidin-3-yl)methyl)methanesulfonamide] | > 100 | 20 | 20 | 
12 | CS(=O)(=O)NCC1CCCN(c2ncnc3cc(O)c(C(F)(F)F)cc23)C1 (centres unmarked) [Compound 63, N-((1-(7-hydroxy-6-(trifluoromethyl)quinazolin-4-yl)piperidin-3-yl)methyl)methanesulfonamide] | > 100 | 10 | 5 | 
